# Publication PMC12396409, “Screening and hit evaluation of a microbial metabolite library against the pathogenic Plasmodium falciparum and Toxoplasma gondii parasites” (International Journal for Parasitology: Drugs and Drug …, 2025)
# Experiments:
# [1] = tested on: T. gondii RH strain (RH-Tub-eYFP) tachyzoites; test: microbe, parasite or virus in culture; format: cell-based, Toxoplasma gondii; conditions: 72 h; for Tg_72h_%Growth_Rep1: replicate 1; for Tg_72h_%Growth_Rep2: replicate 2
# [2] = tested on: P. falciparum 3D7 parasites; test: P. falciparum growth inhibition assay, 2-cycle (120 h treatment), delayed-death screen and dose-response; format: cell-based, Plasmodium falciparum; conditions: for Pf_120h_%Growth_Rep1: replicate 1; for Pf_120h_%Growth_Rep2: replicate 2
# [3] = tested on: P. falciparum 3D7 parasites; test: P. falciparum growth inhibition assay, 1-cycle (72 h treatment), SYBR DNA staining (library screen at 2 μg/mL and dose-response); format: cell-based, Plasmodium falciparum; conditions: for Pf_72h_%Growth_Rep1: replicate 1; for Pf_72h_%Growth_Rep2: replicate 2
# [4] = library screen at 2 μg/mL, % growth
# [5] = library screen at 2 μg/mL, 120 h, % growth
# [6] = library screen at 2 μg/mL, 72 h, % growth
# [7] = P. falciparum, 120 h, screen at 2 μg/mL
# [8] = P. falciparum, 72 h, screen at 2 μg/mL
# [9] = T. gondii RH, library screen at 2 μg/mL, % growth
# [10] = P. falciparum 3D7, 120 h, library screen at 2 μg/mL, % growth
# [11] = P. falciparum 3D7, 72 h, library screen at 2 μg/mL, % growth
# [12] = T. gondii, parasite screen at 2 μg/mL, % growth
# [13] = P. falciparum 3D7, 120 h, parasite screen at 2 μg/mL, % growth
# [14] = P. falciparum 3D7, 72 h, parasite screen at 2 μg/mL, % growth
SMILES,"Tg_72h_%Growth_Rep1 [1, 4] [%]","Tg_72h_%Growth_Rep2 [1, 4] [%]","Pf_120h_%Growth_Rep1 [2, 5] [%]","Pf_120h_%Growth_Rep2 [2, 5] [%]","Pf_72h_%Growth_Rep1 [3, 6] [%]","Pf_72h_%Growth_Rep2 [3, 6] [%]",further results
COc1ccc2c3c([nH]c2c1)[C@H](C=C(C)C)N1C(=O)[C@@H]2CCCN2C(=O)[C@@H]1C3 [Fumitremorgin C],152.38,98.57,98.00,92.77,84.21,83.65,
CC[C@H](C)[C@H]1O[C@]2(C=C[C@@H]1C)C[C@@H]1C[C@@H](C/C=C(\C)[C@@H](O[C@H]3C[C@H](OC)[C@@H](O[C@H]4C[C@H](OC)[C@H](NC)[C@H](C)O4)[C@H](C)O3)[C@@H](C)/C=C/C=C3\CO[C@@H]4[C@H](O)C(C)=C[C@@H](C(=O)O1)[C@]34O)O2 [Emamectin B1a],22.56,92.26,3.81,6.54,2.12,0.39,
C[C@@H]1C=C2C(=O)O[C@@H]3CC[C@H](C1)[C@]23O [Galiellalactone],132.28,99.14,91.95,97.41,88.40,106.75,
C=C1CC[C@H]2C(C)(C)CCC[C@]2(C)[C@H]1C[C@@]12C[C@H]3C(=O)N[C@@H](CC(C)C)C(=O)N3[C@@H]1Nc1ccccc12 [Drimentine A],101.23,80.15,26.95,40.06,31.67,47.87,
C[C@@]12c3ccc4c(c3C(=O)c3occ(c31)[C@@H](O)C[C@H]2O)CCC4=O [Demethoxyviridiol],,,,,,,"Tg_72h_%Growth_Rep1 ([1]; T. gondii, screen at 2 μg/mL): 264.14%; Tg_72h_%Growth_Rep2 ([1]; T. gondii, screen at 2 μg/mL): 123.20%; Pf_120h_%Growth_Rep1 [2, 7]: 76.39%; Pf_120h_%Growth_Rep2 [2, 7]: 74.74%; Pf_72h_%Growth_Rep1 [3, 8]: 73.11%; Pf_72h_%Growth_Rep2 [3, 8]: 74.92%"
CC(C)[C@@H]1NC(=O)[C@H](Cc2ccccc2)NC1=O [Cyclo(L-Phe-L-Val)],,,,,,,"Tg_72h_%Growth_Rep1 ([1]; T. gondii, screen at 2 μg/mL): 132.95%; Tg_72h_%Growth_Rep2 ([1]; T. gondii, screen at 2 μg/mL): 103.43%; Pf_120h_%Growth_Rep1 [2, 7]: 67.70%; Pf_120h_%Growth_Rep2 [2, 7]: 97.99%; Pf_72h_%Growth_Rep1 [3, 8]: 85.66%; Pf_72h_%Growth_Rep2 [3, 8]: 90.47%"
CCCCCC(=O)OC1C(C)OC(OC2C(C)OC(OC3C(CC=O)CC(C)C(O)C=CC=CCC(C)OC(=O)CC(O)C3OC)C(O)C2N(C)C)CC1(C)O (stereo not drawn) [BIA-L1365],,,,,,,"Tg_72h_%Growth_Rep1 [1, 9]: 22.41%; Tg_72h_%Growth_Rep2 [1, 9]: 22.70%; Pf_120h_%Growth_Rep1 [2, 10]: 2.62%; Pf_120h_%Growth_Rep2 [2, 10]: 15.42%; Pf_72h_%Growth_Rep1 [3, 11]: 29.67%; Pf_72h_%Growth_Rep2 [3, 11]: 36.72%"
CC1=CCC2CC(CC3(CCC(C)C(C)O3)O2)OC(=O)C2C=C(C)C(O)C3OCC(=CC=CC(C)C1)C23O (stereo not drawn) [BIA-M1051],,,,,,,"Tg_72h_%Growth_Rep1 [1, 12]: 114.92%; Tg_72h_%Growth_Rep2 [1, 12]: 98.32%; Pf_120h_%Growth_Rep1 [2, 13]: 10.36%; Pf_120h_%Growth_Rep2 [2, 13]: 24.90%; Pf_72h_%Growth_Rep1 [3, 14]: 47.24%; Pf_72h_%Growth_Rep2 [3, 14]: 1.70%"
COc1cc(/C=C/C(=O)O)ccc1O [Ferulic acid],101.17,94.55,78.07,101.86,82.96,102.51,
